This note sets out measurements from patent US10898469B2, “Imidazolylamide derivative” (Sumitomo Dainippon Pharma Co., Ltd., priority 2016, dated 2021).

What all share (assay type): cell-based, human
In test [1] the test system is HCT-116 cells. Briefly: Inhibition test for sphere-forming ability of cancer cells (Test Example 1), HCT-116. The note with it: for IC50: HCT-116 cells, concentration for 50% inhibition of cell proliferation, read-out: IC50 (μmol/L) HCT-116 (Sphere IC50 value); for inhibitory effect on the sphere-forming ability of cancer cells: Test Example 1, summary in words, cell line not given (HCT-116, HT-29, FaDu tested). The procedure, abridged:
(§1)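 Sphere IC50 (μmol/L) derived from CellTiter-Glo luminescence after 4 days of compound treatment (final DMSO 0.1%). Non-adherent, serum-free culture of 350-800 cells/well in DMEM/F12 supplemented with 2% B27, EGF, bFGF and insulin assessed self-renewal.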

Test [2] has as its system HT-29 cells. Briefly: Inhibition test for sphere-forming ability of cancer cells (Test Example 1), HT-29. The note with it: concentration for 50% inhibition of cell proliferation, read-out: IC50 (μmol/L) HT-29 (Sphere IC50 value). The method, boiled down:
as §1

Test [3] has as its system FaDu cells. Briefly: Inhibition test for sphere-forming ability of cancer cells (Test Example 1), FaDu. The following applies: concentration for 50% inhibition of cell proliferation, read-out: IC50 (μmol/L) FaDu (Sphere IC50 value). The procedure, abridged:
as §1

For test [4], the system named is HCT-116 cells. Briefly: Inhibition test for sphere-forming ability of cancer cells in the presence of BSA (Test Example 2), HCT-116. The following applies: for IC50: HCT-116 cells, in the presence of 5% BSA, cultured 4 days; for inhibitory effect on the sphere-forming ability of cancer cells: Test Example 2, in the presence of 5% BSA, summary in words, cell line not given (HCT-116, HT-29, FaDu tested). The method, boiled down:
(§2)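 Spheres grown 4 days in ultra-low-attachment wells, 350-800 cells/well, in DMEM/F12 with 2% B27, 20 ng/mL EGF, 10 ng/mL bFGF, 5 μg/mL insulin and 5% BSA; 0.1% DMSO final. Viable cells read by CellTiter-Glo luminescence; Sphere IC50 (μmol/L) for 50% proliferation inhibition.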

The test system of test [5] is HT-29 cells. Briefly: Inhibition test for sphere-forming ability of cancer cells in the presence of BSA (Test Example 2), HT-29. The following applies: in the presence of 5% BSA, cultured 4 days. The method, boiled down:
as §2

The subject of test [6] is FaDu cells. Briefly: Inhibition test for sphere-forming ability of cancer cells in the presence of BSA (Test Example 2), FaDu. The note with it: in the presence of 5% BSA, cultured 4 days. On the procedure:
Human colorectal cancer-derived HCT-116 cells, human colon-adenocarcinoma-derived HT-29 cells, and human pharyngeal cancer-derived FaDu cells were available from American Type Culture Collection (ATCC). HCT-116 cells and HT-29 cells were cultured at 37° C. under 5% CO2 using the McCoy's 5a medium containing 10% fetal bovine serum (FBS) and 1% penicillin/streptomycin, and FaDu cells were cultured at 37° C. under 5% CO2 using the MEM medium containing 10% FBS, 1% non-essential amino acid, 1% sodium pyruvate, 5% bovine serum albumin (BSA), and 1% penicillin/streptomycin. HCT-116 cells, HT-29 cells, and FaDu cells were seeded in a 384 Well Black Clear Bottom Ultra-Low Attachment Microplate (Corning Cat. No. 3827) in an amount of 350-800 cells/well using the DMEM/F12 medium containing 2% B27 supplement (GIBCO), 20 ng/mL epidermal growth factor (EGF) (peprotech), 10 ng/mL basic fibroblast growth factor (bFGF) (peprotech), 5 μg/mL insulin (Sigma), 5% bovine serum albumin (BSA), and 1% penicillin/streptomycin. Each test compound was added into each well to adjust the final concentration of DMSO to 0.1%, and the cells were cultured for 4 days. The number of viable cells in each well was then measured with CellTiter-Glo® Luminescent Cell Viability Assay (Promega) to calculate the concentration of each test compound for 50% inhibition of cell proliferation (Sphere IC50 value; μmol/L).
The experiment of Test Example 2 was performed for each compound of each Example.
The concentration of each test compound for 50% inhibition of cell proliferation (Sphere IC50 value; μmol/L) is shown in the following Table.

For the molecule `CC(=O)Nc1ccc(/C=C/C(=O)Nc2cn(Cc3cccc(C(F)(F)F)c3)cn2)cc1` [Example 8, (2E)-3-[4-(acetylamino)phenyl]-N-{1-[3-(trifluoromethyl)benzyl]-1H-imidazol-4-yl}prop-2-enamide], the IC50 in test [1] (Homo sapiens) was determined as 0.31 µmol/L; in test [2] (Homo sapiens) it was 0.05 µmol/L; in test [3] (Homo sapiens), 0.06 µmol/L; in test [4] (Homo sapiens, HCT-116, 96 h), 630 nM; in test [5] (Homo sapiens, 96 h), 370 nM; in test [6] (Homo sapiens, 96 h), 70 nM. Besides, the “inhibitory effect on the sphere-forming ability of cancer cells” value (shortened to “inhibitory effect”) in test [1] and in test [4] was “particularly potent inhibitory effect” each time.

In the case of `CC(=O)Nc1ccc(/C=C/C(=O)Nc2cn(Cc3cccc(OC(F)(F)F)c3)cn2)cc1` [Example 10, (2E)-3-[4-(acetylamino)phenyl]-N-{1-[3-(trifluoromethoxy)benzyl]-1H-imidazol-4-yl}prop-2-enamide], the IC50 was 0.63 µmol/L in test [1] (Homo sapiens); 0.07 µmol/L in test [2] (Homo sapiens); 0.07 µmol/L in test [3] (Homo sapiens); 830 nM in test [4] (Homo sapiens, HCT-116, 96 h); 550 nM in test [5] (Homo sapiens, 96 h); 280 nM in test [6] (Homo sapiens, 96 h).

Consider `COc1ccc(C(=O)Nc2cn(Cc3cc(F)c(F)c(F)c3F)cn2)cc1OC` [Example 156], for which the IC50 in test [1] is 0.54 µmol/L; in test [2], 0.39 µmol/L; in test [3], 0.55 µmol/L; in test [4] it was 5070 nM; in test [5], 590 nM; in test [6], 420 nM.

`COc1ccc(C(=O)Nc2cn(Cc3c(F)c(F)c(F)c(F)c3F)cn2)cc1OC` [Example 157]: the IC50 was 7.33 µmol/L in test [1]; 6.89 µmol/L in test [2]; 8.46 µmol/L in test [3]; more than 10000 nM in test [4]; 7420 nM in test [5]; 5640 nM in test [6].

On to `CC(=O)Nc1ccc(C(=O)Nc2cn(Cc3cccc(Cl)c3)cn2)cn1` [Example 247, 6-(Acetylamino)-N-[1-(3-chlorobenzyl)-1H-imidazol-4-yl]nicotinamide], for which the IC50 in test [1] (Homo sapiens) stood at 9.22 µmol/L; in test [2] (Homo sapiens), 0.42 µmol/L; in test [3] (Homo sapiens), 7.25 µmol/L; in test [4] (Homo sapiens, HCT-116, 96 h), 9840 nM; in test [5] (Homo sapiens, 96 h), 7150 nM; in test [6] (Homo sapiens, 96 h), 6800 nM.

Regarding `CNc1ccc(C(=O)Nc2cn(Cc3cccc(Cl)c3)cn2)cn1` [Example 225], the IC50 in test [1] is 6.76 µmol/L; in test [2], 0.99 µmol/L; in test [3], 6 µmol/L; in test [4] it was more than 10000 nM; in test [5] it was 6520 nM; in test [6] it was 5900 nM.

Regarding `N#Cc1ccc(/C=C/C(=O)Nc2cn(Cc3cccc(Cl)c3)cn2)cc1OCCO` [Example 35, (2E)-N-[1-(3-chlorobenzyl)-1H-imidazol-4-yl]-3-[4-cyano-3-(2-hydroxyethoxy)phenyl]prop-2-enamide], the IC50 in test [1] (Homo sapiens) is 0.08 µmol/L; in test [2] (Homo sapiens), 0.07 µmol/L; in test [3] (Homo sapiens), 0.08 µmol/L; in test [4] (Homo sapiens, HCT-116, 96 h) it was 720 nM; in test [5] (Homo sapiens, 96 h), 540 nM; in test [6] (Homo sapiens, 96 h), 60 nM. In addition, the “inhibitory effect” value in test [1] is “particularly potent inhibitory effect”.

`CCNc1ccc(/C=C/C(=O)Nc2cn(Cc3cccc(Cl)c3)cn2)cn1` [Example 18]: the IC50 in test [1] came to 0.07 µmol/L; in test [2], 0.02 µmol/L; in test [3], 0.06 µmol/L; in test [4], 580 nM; in test [5] it was 50 nM; in test [6], 30 nM. Besides, the “inhibitory effect” value in test [1] and in test [4] was “particularly potent inhibitory effect” throughout.

Regarding `O=C(Nc1ccncn1)c1cn(Cc2cccc(Cl)c2)cn1` [Example 261], the IC50 in test [1] came out at 0.61 µmol/L; in test [2], 0.46 µmol/L; in test [3], 0.59 µmol/L; in test [4] it was 860 nM; in test [5], 520 nM; in test [6], 480 nM.

`CC(=O)Nc1ccc(/C=C/C(=O)Nc2cn(Cc3cc(F)c(F)c(F)c3)cn2)cc1` [Example 11, (2E)-3-[4-(acetylamino)phenyl]-N-[1-(3,4,5-trifluorobenzyl)-1H-imidazol-4-yl]prop-2-enamide]: the IC50 in test [1] (Homo sapiens) is less than 0.01 µmol/L; in test [2] (Homo sapiens) it was 0.08 µmol/L; in test [3] (Homo sapiens), 0.08 µmol/L; in test [4] (Homo sapiens, HCT-116, 96 h), 260 nM; in test [5] (Homo sapiens, 96 h), 70 nM; in test [6] (Homo sapiens, 96 h) it was 60 nM. Besides, the “inhibitory effect” value in test [1] and in test [4] was “particularly potent inhibitory effect” each time.

For the molecule `O=C(Nc1ccc(Cn2cccn2)cc1)c1cn(Cc2cccc(Cl)c2)cn1` [Example 260], the IC50 in test [1] was found to be 0.76 µmol/L; in test [2] it was 0.71 µmol/L; in test [3], 0.67 µmol/L; in test [4], 6810 nM; in test [5], 4090 nM; in test [6], 3090 nM.

With `COc1ccc(C(=O)Nc2cn(Cc3cc(F)c(F)cc3F)cn2)cc1OC` [Example 143, 3,4-Dimethoxy-N-[1-(2,4,5-trifluorobenzyl)-1H-imidazol-4-yl]benzamide], the IC50 in test [1] (Homo sapiens) is 0.95 µmol/L; in test [2] (Homo sapiens) it was 0.84 µmol/L; in test [3] (Homo sapiens) it was 0.93 µmol/L; in test [4] (Homo sapiens, HCT-116, 96 h), 6350 nM; in test [5] (Homo sapiens, 96 h) it was 5210 nM; in test [6] (Homo sapiens, 96 h) it was 960 nM.

Turning to `O=C(/C=C/c1ccc(NC(=O)CO)cc1)Nc1cn(Cc2cccc(Cl)c2)cn1` [Example 7, (E)-N-(1-(3-Chlorobenzyl)-1H-imidazol-4-yl)-3-(4-(2-hydroxyacetylamino)phenyl)acrylamide], the IC50 in test [1] (Homo sapiens) was found to be 0.66 µmol/L; in test [2] (Homo sapiens) it was 0.13 µmol/L; in test [3] (Homo sapiens), 0.35 µmol/L; in test [4] (Homo sapiens, HCT-116, 96 h), 790 nM; in test [5] (Homo sapiens, 96 h), 550 nM; in test [6] (Homo sapiens, 96 h), 460 nM.

Consider `COc1ccc(NC(=O)c2cn(Cc3cc(F)c(F)c(F)c3)cn2)cc1OC` [Example 251, N-(3,4-Dimethoxyphenyl)-1-(3,4,5-trifluorobenzyl)-1H-imidazole-4-carboxamide], for which the IC50 in test [1] (Homo sapiens) amounted to 0.21 µmol/L; in test [2] (Homo sapiens), 0.54 µmol/L; in test [3] (Homo sapiens), 0.43 µmol/L; in test [4] (Homo sapiens, HCT-116, 96 h), 770 nM; in test [5] (Homo sapiens, 96 h), 600 nM; in test [6] (Homo sapiens, 96 h), 550 nM.

As to `N#Cc1ccc(/C=C/C(=O)Nc2cn(Cc3cccc(C(F)(F)F)c3)cn2)cc1OCCO` [Example 36, (E)-3-(4-Cyano-3-(2-hydroxyethoxy)phenyl)-N-(1-(3-(trifluoromethyl)benzyl)-1H-imidazol-4-yl)acrylamide], the IC50 in test [1] (Homo sapiens) was 0.08 µmol/L; in test [2] (Homo sapiens), 0.06 µmol/L; in test [3] (Homo sapiens) it was 0.08 µmol/L; in test [4] (Homo sapiens, HCT-116, 96 h), 690 nM; in test [5] (Homo sapiens, 96 h), 520 nM; in test [6] (Homo sapiens, 96 h) it was 60 nM. The “inhibitory effect” value in test [1] and in test [4] was “particularly potent inhibitory effect” each time.
